Values joined by “and” are separate entries in the source; they are usually repeats but may differ in a detail not shown here. Equal entries are not always repeated. Where two headings read alike, the source gives them in different places.
Columns and labels:
KRAS G13D = KRAS G13D (Homo sapiens, UniProt P01116+P62937, G13D); assay: Ras-Raf disruption/FRET/MOA assay, KRAS G13D; format: biochemical
From the text: (§1) Disruption of B-Raf Ras-Binding Domain (BRAF^RBD) Interaction with K-Ras by Compounds of the Invention (Also Called a FRET Assay or an MOA Assay)
(§2) Note—The following protocol describes a procedure for monitoring disruption of K-Ras G12C (GMP-PNP) binding to BRAF^RBD by a compound of the invention. This protocol may also be executed substituting other Ras proteins or nucleotides, such as K-Ras G12D and K-Ras G13D.
(§3) The purpose of this biochemical assay was to measure the ability of test compounds to facilitate ternary complex formation between a nucleotide-loaded K-Ras isoform and Cyclophilin A; the resulting ternary complex disrupts binding to a BRAF^RBD construct, inhibiting K-Ras signaling through a RAF effector.
(§4) In assay buffer containing 25 mM HEPES pH 7.3, 0.002% Tween20, 0.1% BSA, 100 mM NaCl and 5 mM MgCl2, tagless Cyclophilin A, His6-K-Ras-GMPPNP, and GST-BRAF^RBD were combined in a 384-well assay plate at final concentrations of 25 μM, 12.5 nM, and 50 nM, respectively. Compound was present in plate wells as a 10-point 3-fold dilution series starting at a final concentration of 30 μM. After incubation at 25° C. for 3 hours, a mixture of anti-His Eu-W1024 and anti-GST allophycocyanin was then added to assay sample wells at final concentrations of 10 nM and 50 nM, respectively, and the reaction incubated for an additional 1.5 hours. […] Compounds that facilitate disruption of a K-Ras:RAF complex were identified as those eliciting a decrease in the TR-FRET ratio relative to DMSO control wells.

KRAS G12S = KRAS G12S (Homo sapiens, UniProt P01116+P62937, G12S); assay: Ras-Raf disruption/FRET/MOA assay, KRAS G12S; format: biochemical
From the text: as §1, §2, §3, §4

KRAS G13C = KRAS G13C (Homo sapiens, UniProt P01116+P62937, G13C); assay: Ras-Raf disruption/FRET/MOA assay, KRAS G13C; format: biochemical
From the text: as §1, §2, §3, §4

KRAS G12V = KRAS G12V (Homo sapiens, UniProt P01116+P62937, G12V); assay: Ras-Raf disruption/FRET/MOA assay, KRAS G12V; format: biochemical
From the text: as §1, §2, §3, §4

KRAS G12D = KRAS G12D (Homo sapiens, UniProt P01116+P62937, G12D); assay: Ras-Raf disruption/FRET/MOA assay, KRAS G12D; format: biochemical
From the text: as §1, §2, §3, §4

KRAS WT = KRAS WT (Homo sapiens, UniProt P01116+P62937); assay: Ras-Raf disruption/FRET/MOA assay, KRAS WT; format: biochemical
From the text: as §1, §2, §3, §4

NRAS G12C = target: T1, NRAS G12C (Homo sapiens, UniProt P01111+P62937, G12C); assay: Ras-Raf disruption/FRET/MOA assay, NRAS G12C; format: biochemical
T1 construct: His6
From the text: as §1, §2, §3, §4

NCI-H358 (K-Ras G12C) = assay: CellTiter-Glo cell viability assay, H358; format: cell-based; conditions: Homo sapiens, NCI-H358, 120 h
How it was run: (§5)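 Luminescence from CellTiter-Glo serves as the viability read-out after cells are treated with compound for 5 days. Each well's signal is divided by the DMSO average and multiplied by 100, and curves are fitted by four-parameter logistic regression.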

AsPC-1 (K-Ras G12D) [1] = assay: Potency assay: pERK in AsPC-1 cells; format: cell-based; conditions: Homo sapiens
AsPC-1 (K-Ras G12D) [2] = assay: CellTiter-Glo cell viability assay, AsPC-1; format: cell-based; conditions: Homo sapiens, ASPC1, 120 h
How it was run: as §5

KRAS G12C = KRAS G12C (Homo sapiens, UniProt P01116+P62937, G12C); assay: Ras-Raf disruption/FRET/MOA assay, KRAS G12C; format: biochemical; conditions: disruption of BRAF RBD binding, with Cyclophilin A; read-out: KRAS G12C FRET IC50
From the text: as §1, §2, §3, §4

[3] = disruption of BRAF RBD binding, with Cyclophilin A, read-out: KRAS G13D FRET IC50
[4] = disruption of BRAF RBD binding, with Cyclophilin A, read-out: KRAS G12S FRET IC50
[5] = disruption of BRAF RBD binding, with Cyclophilin A, read-out: KRAS G12V FRET IC50
[6] = disruption of BRAF RBD binding, with Cyclophilin A, read-out: KRAS WT FRET IC50
[7] = NRAS G12C, read-out: NRAS G12C FRET data IC50
[8] = ASPC1, read-out: pERK EC50 (AsPC-1 KRAS G12D)
[9] = AsPC-1, K-Ras G12D, 5-day treatment, read-out: AsPC-1 Cell Viability IC50
[10] = read-out: H358 Cell Viability IC50, NCI-H358, K-Ras G12C, 5-day treatment
[11] = ASPC1, AsPC-1 cells, K-Ras G12D, read-out: pERK EC50 (AsPC-1 KRAS G12D)
[12] = NCI-H358, K-Ras G12C, 5-day treatment, read-out: H358 Cell Viability IC50

Sequence of KRAS WT (P01116 1-169 isoform P01116-2 limits assumed): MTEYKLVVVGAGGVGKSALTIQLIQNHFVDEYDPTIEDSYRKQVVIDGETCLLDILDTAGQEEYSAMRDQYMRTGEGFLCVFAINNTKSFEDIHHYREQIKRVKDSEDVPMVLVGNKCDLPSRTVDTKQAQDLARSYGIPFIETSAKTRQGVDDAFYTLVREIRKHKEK
Sequence of KRAS WT (P62937 whole entry): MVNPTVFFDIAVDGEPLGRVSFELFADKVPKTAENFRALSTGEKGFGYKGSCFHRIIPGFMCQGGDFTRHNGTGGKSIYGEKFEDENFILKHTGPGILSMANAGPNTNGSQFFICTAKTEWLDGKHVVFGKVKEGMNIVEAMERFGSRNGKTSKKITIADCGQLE
Sequence of KRAS G13D (P01116 1-169 isoform P01116-2 G13D limits assumed): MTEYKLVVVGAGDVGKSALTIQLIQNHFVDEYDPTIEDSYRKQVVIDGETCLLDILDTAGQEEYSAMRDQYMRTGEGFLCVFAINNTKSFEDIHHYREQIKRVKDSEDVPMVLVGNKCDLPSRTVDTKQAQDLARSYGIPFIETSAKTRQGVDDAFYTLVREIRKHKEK
Sequence of KRAS G13D (P62937 whole entry, the tested form may be a part): as the sequence (P62937 whole entry) above
Sequence of KRAS G12S (P01116 1-169 isoform P01116-2 G12S limits assumed): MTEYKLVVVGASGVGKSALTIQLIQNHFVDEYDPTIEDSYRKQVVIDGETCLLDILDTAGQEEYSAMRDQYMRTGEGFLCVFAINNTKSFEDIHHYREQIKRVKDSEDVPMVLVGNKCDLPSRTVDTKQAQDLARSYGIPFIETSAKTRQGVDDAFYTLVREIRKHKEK
Sequence of KRAS G12S (P62937 whole entry): as the sequence (P62937 whole entry) above
Sequence of KRAS G12C (P01116 1-169 isoform P01116-2 G12C limits assumed): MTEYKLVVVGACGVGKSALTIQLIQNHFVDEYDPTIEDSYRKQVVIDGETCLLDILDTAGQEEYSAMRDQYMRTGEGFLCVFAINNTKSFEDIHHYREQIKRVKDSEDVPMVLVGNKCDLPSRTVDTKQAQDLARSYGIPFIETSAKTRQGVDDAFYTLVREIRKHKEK
Sequence of KRAS G12C (P62937 whole entry): as the sequence (P62937 whole entry) above
Sequence of KRAS G12V (P01116 1-169 isoform P01116-2 G12V limits assumed): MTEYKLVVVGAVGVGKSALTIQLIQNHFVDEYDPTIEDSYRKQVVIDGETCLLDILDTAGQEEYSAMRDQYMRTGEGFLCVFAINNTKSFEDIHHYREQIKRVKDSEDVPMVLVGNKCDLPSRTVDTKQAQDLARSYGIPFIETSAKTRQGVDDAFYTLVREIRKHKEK
Sequence of KRAS G12V (P62937 whole entry): as the sequence (P62937 whole entry) above
T1 sequence (P01111 whole entry G12C): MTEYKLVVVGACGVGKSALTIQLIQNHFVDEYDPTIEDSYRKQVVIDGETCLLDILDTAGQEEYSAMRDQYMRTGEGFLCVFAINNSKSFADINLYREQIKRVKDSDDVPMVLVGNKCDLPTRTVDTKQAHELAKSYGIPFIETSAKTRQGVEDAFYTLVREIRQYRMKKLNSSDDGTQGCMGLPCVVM
T1 sequence (P62937 whole entry): as the sequence (P62937 whole entry) above
Sequence of KRAS G13C (P01116 1-169 isoform P01116-2 G13C limits assumed): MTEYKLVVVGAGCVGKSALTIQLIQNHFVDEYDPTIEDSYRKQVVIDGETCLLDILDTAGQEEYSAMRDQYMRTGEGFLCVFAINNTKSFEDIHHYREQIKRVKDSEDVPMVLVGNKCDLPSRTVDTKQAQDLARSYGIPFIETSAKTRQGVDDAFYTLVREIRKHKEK
Sequence of KRAS G13C (P62937 whole entry): as the sequence (P62937 whole entry) above
Sequence of KRAS G12D (P01116 1-169 isoform P01116-2 G12D limits assumed): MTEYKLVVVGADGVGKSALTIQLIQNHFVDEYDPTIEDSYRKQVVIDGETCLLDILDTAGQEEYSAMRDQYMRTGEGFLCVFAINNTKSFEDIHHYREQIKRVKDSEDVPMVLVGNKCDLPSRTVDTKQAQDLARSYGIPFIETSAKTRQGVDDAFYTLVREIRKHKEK
Sequence of KRAS G12D (P62937 whole entry): as the sequence (P62937 whole entry) above

Work on CCn1c(-c2cnccc2COC)c2c3cc(ccc31)-c1cccc(c1)C[C@H](NC(=O)[C@H](C(C)C)N(C)C(=O)[C@H]1CC[C@H](N=C=Nc3ccc(OC)cc3)C1)C(=O)N1CCC[C@H](N1)C(=O)OCC(C)(C)C2 [71 A and B] yielded an IC50 (KRAS G13D; [3]) greater than 10000 nM, an IC50 (KRAS G12S; [4]) greater than 10000 nM and an IC50 (KRAS G13C; disruption of BRAF RBD binding, with Cyclophilin A, read-out: KRAS G13C FRET IC50) greater than 10000 nM. For the same compound, the IC50 (KRAS G12V; [5]) was greater than 10000 nM, the IC50 (KRAS G12D; disruption of BRAF RBD binding, with Cyclophilin A, read-out: KRAS G12D FRET IC50) was greater than 10000 nM and the IC50 (KRAS WT; [6]) was greater than 10000 nM. The IC50 (NRAS G12C; [7]) was 100 to 1000 nM and > 10000 nM.

CCn1c(-c2cnccc2COC)c2c3cc(ccc31)-c1cc(O)cc(c1)C[C@H](NC(=O)[C@@H](CCNC(=O)NCCCl)C(C)C)C(=O)N1CCC[C@H](N1)C(=O)OCC(C)(C)C2 [Compound 26] gave an IC50 (NCI-H358 (K-Ras G12C); read-out: H358 Cell Viability IC50) of 1000 to 10000 nM and an IC50 (KRAS G12V; [5]) greater than 10000 nM.

For CCn1c(-c2cnccc2COC)c2c3cc(ccc31)-c1cc(O)cc(c1)C[C@H](NC(=O)[C@H](C(C)C)N(C)C(=O)CN(C)C(=O)C1CN1)C(=O)N1CCC[C@H](N1)C(=O)OCC(C)(C)C2 (stereo partly shown) [Compound 33], the EC50 (AsPC-1 (K-Ras G12D) [1]; [8]) was less than 5000 nM, the IC50 (KRAS G13D) was 100 to 1000 nM and the IC50 (KRAS G12S) was 10 to 100 nM. It also gave an IC50 (KRAS G13C) of 100 to 1000 nM, an IC50 (KRAS G12V) of 100 to 1000 nM and an IC50 (KRAS G12D) of 100 to 1000 nM. The IC50 (KRAS WT) was 100 to 1000 nM and the IC50 (NRAS G12C; NRAS G12C FRET data IC50, NRAS G12C) was 10 to 100 nM.

With CCn1c(-c2cnccc2COC)c2c3cc(ccc31)-c1cc(O)cc(c1)C[C@H](NC(=O)[C@@H](CN(C)C(=O)[C@H]1CN1)C(C)C)C(=O)N1CCC[C@H](N1)C(=O)OCC(C)(C)C2 [Compound 99] the IC50 (AsPC-1 (K-Ras G12D) [2]; [9]) was greater than 10000 nM, the IC50 (KRAS G12V; [5]) was greater than 10000 nM and the IC50 (KRAS G12C) was greater than 10000 nM.

Work on CCn1c(-c2cnccc2COC)c2c3cc(ccc31)-c1cccc(c1)C[C@H](NC(=O)[C@H](C(C)C)N(C)C(=O)[C@@H]1CC[C@@H](N=C=Nc3ccc(OC)cc3)C1)C(=O)N1CCC[C@H](N1)C(=O)OCC(C)(C)C2 [70 A and B] yielded an IC50 (KRAS G13D; [3]) greater than 10000 nM, an IC50 (KRAS G12S; [4]) greater than 10000 nM and an IC50 (KRAS G12V; [5]) greater than 10000 nM. For the same compound, the IC50 (KRAS WT; [6]) was greater than 10000 nM and the IC50 (NRAS G12C; [7]) was 100 to 1000 nM and > 10000 nM.

CCn1c(-c2cccnc2COC)c2c3cc(ccc31)-c1cc(O)cc(c1)C[C@H](NC(=O)[C@H](C(C)C)N(C)C(=O)CCNC(=O)NCCCl)C(=O)N1CCC[C@H](N1)C(=O)OCC(C)(C)C2 [Example 25, (2S)-2-(3-(3-(2-chloroethyl)ureido)-N-methylpropanamido)-N-((6^3S,4S)-1^1-ethyl-2^5-hydroxy-1^2-(2-(methoxymethyl)pyridin-3-yl)-10,10-dimethyl-5,7-dioxo-6^1,6^2,6^3,6^4,6^5,6^6-hexahydro-1^1H-8-oxa-1(5,3)-indola-6(1,3)-pyridazina-2(1,3)-benzenacycloundecaphane-4-yl)-3-methylbutanamide] gave an IC50 (NCI-H358 (K-Ras G12C); [10]) greater than 10000 nM and an IC50 (KRAS G12V) greater than 10000 nM.

CCn1c(-c2cccnc2[C@H](C)OC)c2c3cc(ccc31)-c1csc(n1)C[C@H](NC(=O)[C@H](C(C)C)N(C)C(=O)N1CC(N(C)C(=O)[C@H]3CN3)C1)C(=O)N1CCC[C@H](N1)C(=O)OCC(C)(C)C2 (atropisomer, axis not shown) [Compound 218] showed an EC50 (AsPC-1 (K-Ras G12D) [1]; [11]) of less than 5000 nM, an IC50 (AsPC-1 (K-Ras G12D) [2]; [9]) of 1000 to 10000 nM and an IC50 (KRAS G12C) of 100 to 1000 nM.

In the case of CCn1c(-c2cnccc2COC)c2c3cc(ccc31)-c1cccc(c1)C[C@H](NC(=O)[C@H](C(C)C)N(C)C(=O)CCN=C=NCCCN1CCOCC1)C(=O)N1CCC[C@H](N1)C(=O)OCC(C)(C)C2 [17 A and B], the EC50 (AsPC-1 (K-Ras G12D) [1]; [11]) is reported as less than 5000 nM, the IC50 (NCI-H358 (K-Ras G12C); [12]) is reported as 1000 to 10000 nM and the IC50 (AsPC-1 (K-Ras G12D) [2]; [9]) is reported as 1000 to 10000 nM. The IC50 (KRAS G12C) was 100 to 1000 nM.

In the case of CCn1c(-c2cccnc2[C@H](C)OC)c2c3cc(ccc31)-c1cc(O)cc(c1)C[C@H](NC(=O)[C@H](C(C)C)N(C)C(=O)CN(C)C(=O)[C@H]1CN1CC(=O)N(C)C)C(=O)N1CCC[C@H](N1)C(=O)OCC(C)(C)C2 (stereo partly shown) [Compound 270], the EC50 (AsPC-1 (K-Ras G12D) [1]; [8]) is reported as less than 5000 nM, the IC50 (NCI-H358 (K-Ras G12C); [10]) is reported as 10 to 100 nM and the IC50 (AsPC-1 (K-Ras G12D) [2]; read-out: AsPC-1 Cell Viability IC50, AsPC-1, K-Ras G12D, 5-day treatment) is reported as 100 to 1000 nM.

CCn1c(-c2cc(C3CCN(C)CC3)cnc2[C@H](C)OC)c2c3cc(ccc31)-c1cc(O)cc(c1)C[C@H](NC(=O)[C@H](C1CCCC1)N(C)C(=O)CN(C)C(=O)[C@H]1CN1)C(=O)N1CCC[C@H](N1)C(=O)OCC(C)(C)C2 [Compound 230] gave an EC50 (AsPC-1 (K-Ras G12D) [1]; [11]) of less than 5000 nM, an IC50 (NCI-H358 (K-Ras G12C); [12]) of 10 to 100 nM and an IC50 (AsPC-1 (K-Ras G12D) [2]; [9]) of 10 to 100 nM.

Reference: patent US11739074B2, “Ras inhibitors” (Revolution Medicines, Inc., priority 2019, dated 2023)
